The text below walks through data of patent US20050245508A1, “Treatment of malignant gliomas with TGF-beta inhibitors” (SCIOS, Inc., priority 2003, published 2005).

Broadly, the EC50 is the concentration needed to bring the measured effect to its halfway point.

One data set relates to SMA-560 glioma cells. Put plainly: Glioma cell growth, [methyl-3H]-thymidine incorporation. The data set is classed as cell-based, murine. As for the experimental part: FIG. 2. Abrogation of autocrine TGF-β signaling in glioma cells by Compound No. 79. A. The cells were seeded at 10^4 cells/well in 96 well plates and cultured in the absence or presence of Compound No. 79 for 48 h in serum-free medium. Growth was assessed by [methyl-^3H]-thymidine incorporation at 48 h (*p<0.05, t-test). B. Lysates from untreated glioma cells or cells preexposed to Compound No. 79 (1 μM) for 24 h or exposed to TGF-b2 (5 ng/ml) for 1 h or both were assessed for the levels of p-Smad2 or total Smad2/3. Note that the antibodies were specific to p-Smad2 and total Smad 2 and 3, respectively.
(§1) The glioma cells and CCL64 cells were maintained in DMEM supplemented with 2 mM L-glutamine (Gibco Life Technologies, Paisley, UK), 10% FCS (Biochrom KG, Berlin, Germany) and penicillin (100 IU/ml)/streptomycin (100 μg/ml) (Gibco). Growth and viability of the glioma cells was examined by crystal violet, LDH release (Roche, Mannheim, Germany) and trypan blue dye exclusion assays. To assess clonogenicity, 500 SMA-560 cells were seeded into 6 well plates (9.4 cm^2). After formation of visible cell formations, colonies>20 cells were counted.
In general terms: Uptake of a labelled nucleoside into DNA is a usual measure of proliferation.

A further data set relates to glioma cells. Put plainly: Viability of glioma cells in response to serum deprivation. The data set is classed as cell-based. Conditions: data not shown. As for the experimental part:
as §1

The subject of data set [1] is SMA-560 intracranial experimental glioma. Put plainly: Syngeneic SMA-560 intracranial glioma in VM/Dk mice. In kind it is in vivo. The procedure:
FIG. 4. […] A. VM/Dk mice received an intracranial injection of 5×10^3 SMA-560 cells. […] B. The animals were treated as in A, but were sacrificed on day 10 to obtain splenocytes. IFN-γ release at 24 h was assessed by Elispot. Data are expressed as cytokine-producing cells per 10^6 effector cells. C. The splenocytes were stimulated with IL-2 for 10 days to generate LAK cells.
VM/Dk mice were purchased from the TSE Research Center (Berkshire, UK). Mice of 6-12 weeks of age were used in all experiments. The experiments were performed according to the German animal protection law. Groups of 7-8 mice were anesthesized before all intracranial procedures and placed in a stereotaxic fixation device (Stoelting, Wood Dale, Ill.). A burr hole was drilled in the skull 2 mm lateral to the bregma. The needle of a Hamilton syringe (Hamilton, Darmstadt, Germany) was introduced to a depth of 3 mm. […] The mice were observed daily and, in the survival experiments, sacrified when developing neurological symptoms, or sacrificed as indicated in the other experiments.

Data set [2] concerns CCL64 mink lung epithelial cells. Put plainly: CCL64 TGF-β bioassay (growth, crystal violet). In kind it is cell-based. The procedure: FIG. 1. Prevention of the growth inhibitory effects of recombinant and glioma-derived TGF-b1 and TGF-b2 by a TGF-β inhibitor (Compound No. 79 in Table 2). A. CCL64 cells were exposed to human recombinant TGF-b1 (filled symbols) or TGF-b2 (open symbols) (10 ng/ml) in the absence or presence of increasing concentrations of Comopund No. 79 for 72 h. B. CCL64 cells were maintained in serum-free medium containing heat-activated glioma cell SN (1:1) in the absence or presence of Compound No. 79 for 72 h. Growth was assessed by crystal violet assay (mean and SD, n=3).
The levels of bioactive TGF-β were determined using the CCL64 bioassay. Briefly, […] CCL64 cells were adhered to 96 well plates for 24 h, full medium was replaced by serum-free medium, and the cells were exposed to recombinant TGF-β1/2 or glioma cell culture supernatants diluted in serum-free medium for 72 h. Growth was assessed by crystal violet staining at 72 h. Glioma cell supernatants were harvested from confluent cultures maintained for 48 h in serum-free medium and heat-treated (5 min, 85° C.) to activate latent TGF-β (Leitlein et al., J. Immunol., 166:7238-7243 (2001)).

Another data set relates to LN-308 glioma cells. Kind of data set: Cytotoxicity, LDH release and trypan blue dye exclusion. The data set is classed as cell-based, human. The note with it: up to 1 μM for 72 h. The procedure: as §1
On the technique in general: LDH in the medium is a marker of cell lysis.

Data set [3] deals with splenocytes / LAK cells against SMA-560. Kind of data set: Ex vivo immune effector assays, splenocytes of glioma-bearing mice. In kind it is in vivo, VM/Dk mice. As for the experimental part: FIG. 4. Compound No. 79 inhibits the growth of syngeneic SMA-560 experimental gliomas in vivo and promotes immune activation. A. VM/Dk mice received an intracranial injection of 5×10^3 SMA-560 cells. Three days later treatment with Compound No. 79 was initiated, and survival was monitored. B. The animals were treated as in A, but were sacrificed on day 10 to obtain splenocytes. IFN-γ release at 24 h was assessed by Elispot. Data are expressed as cytokine-producing cells per 10^6 effector cells. C. The splenocytes were stimulated with IL-2 for 10 days to generate LAK cells. Their lytic activity was measured by ^51Cr release using SMA-560 as target cells (vehicle, open squares; Compound No. 79, filled squares) (*p<0.05, t-test).
IL-10, TNF-α and IFN-γ release by immune effector cells was assessed by Elispot assay in a multiscreen-HA 96 well plate (Millipore, Eschborn, Germany), coated with corresponding anti-human capture antibodies (Becton Dickinson). Briefly, 5×10^4 glioma cells were cocultured for 24 h with 105, 2.5×105 or 5×105 HLA-A2-mismatched, prestimulated (5 days) PBL. The cells were removed using double-distilled water, and captured cytokines were visualized using biotinylated antibodies and streptavidin-alkaline phosphatase (Becton Dickinson). Spots were counted on an Elispot reader system (AID, Straβberg, Germany). […]

Data set [4] in a line: Solubility in drinking water. The data set is classed as physicochemical.

`Fc1ccc(Cl)cc1-c1nc(Nc2ccncc2)c2nccnc2n1` [Compound No. 79]: in the data set on SMA-560 glioma cells (concentrations required to block TGF-β in the CCL64 bioassay, 48 h), the proliferation entry is listed as “no effect”. Also, the growth entry with SMA-560 glioma cells (higher concentrations of up to 1 μM, FIG. 2A) is listed as “moderately inhibited”. For the same compound, the “viability in response to serum deprivation” value in the data set with glioma cells is “did not modulate”. Besides, the “development of neurological symptoms” value in data set [1] (1 mg/ml in drinking water from day 3, data not shown) was “delayed”. The “survival rate at 30 days” value in data set [1] (1 mg/ml in drinking water from day 3, control 0%) came to 29%. The same compound had a median survival in data set [1] (1 mg/ml in drinking water from day 3, vehicle 18) of 23 days. Also, the mean survival in data set [1] (1 mg/ml in drinking water from day 3, vehicle 18.6±2.1, p=0.004) turned out to be 25.1 ± 6.5 days. Further, the dose-limiting toxicity entry in data set [1] (drinking water 1 mg/ml) is given as “No dose-limiting toxicity has been reached”. In addition, the EC50 in data set [2] (TGF-β1 or TGF-β2 10 ng/ml, 72 h, FIG. 1A, read-out: EC50 of rescue of TGF-β-mediated inhibition of growth) was ~30 nM. The “growth inhibition mediated by glioma cell supernatants” value in data set [2] (diluted serum-free SMA-560 or LN-308 supernatants, same concentrations, FIG. 1B) is reported as “nullified”. Besides, in the data set on LN-308 glioma cells, the cytotoxic effects entry is “neiter LDH release nor trypan blue dye exclusion assays revealed cytotoxic effects”. For the same compound, the “animals with increase over background of IFN-γ release by splenocytes” value in data set [3] (Elispot, day 7 after initiation of treatment, control 1 of 5, FIG. 4B) was 3 of 5. Moreover, the “lytic activity of LAK cells against SMA-560 targets” value in data set [3] (splenocytes stimulated with IL-2 for 10 days, 51Cr release, FIG. 4C) was “enhanced lytic activity”. Also, the solubility entry in data set [4] is reported as “relatively poor solubility”.
